# From ChEMBL document CHEMBL1201862, “PubChem BioAssay data set” (2004)
#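 Growth conditions: 96-well plates. Treatment: test compound, 48 hours, 5 concentrations. Analysis: linear interpolation between bracketing concentrations; unreached endpoints set to highest concentration. GI50 marks 50% less growth.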 Activity calls are given as the source filed them. No stated cut-off is given here; in the data, active = GI50 up to about 1.1 µM and inactive = higher.
# Key:
# Test in all cases: NCI tumour cell line growth inhibition, 48 h
# Malme-3M = system: Malme-3M
# RPMI-8226 = system: RPMI-8226
# HCT-116 = system: HCT-116
# SK-OV-3 = system: SK-OV-3
# NCI-H226 = system: NCI-H226
# SNB-19 = system: SNB-19
# RXF 393 = system: RXF 393
# NCI-H522 = system: NCI-H522
# SK-MEL-5 = system: SK-MEL-5
# LOX IMVI = system: LOX IMVI
# OVCAR-5 = system: OVCAR-5
# IGROV-1 = system: IGROV-1
# SF-268 = system: SF-268
# CCRF-CEM = system: CCRF-CEM
# UO-31 = system: UO-31
# SF-539 = system: SF-539
# K562 = system: K562
# SNB-75 = system: SNB-75
# UACC-257 = system: UACC-257
# SF-295 = system: SF-295
Structure (SMILES),GI50 (Malme-3M),GI50 (RPMI-8226),GI50 (HCT-116),GI50 (SK-OV-3),GI50 (NCI-H226),GI50 (SNB-19),GI50 (RXF 393),GI50 (NCI-H522),GI50 (SK-MEL-5),GI50 (LOX IMVI),GI50 (OVCAR-5),GI50 (IGROV-1),GI50 (SF-268),GI50 (CCRF-CEM),GI50 (UO-31),GI50 (SF-539),GI50 (K562),GI50 (SNB-75),GI50 (UACC-257),GI50 (SF-295)
COc1c2c(c3ccccc3c1O)C1C=CC2C1 (stereo unspecified),6.3 µM (inactive),> 100 µM (inactive),4 µM (inactive),> 10 µM (inactive),> 10 µM (inactive),> 10 µM (inactive),15.5 µM (inactive),14.9 µM (inactive),5.77 µM (inactive),4.48 µM (inactive),18.7 µM (inactive),20.8 µM (inactive),17.7 µM (inactive),4.72 µM (inactive),5.35 µM (inactive),14.6 µM (inactive),3.85 µM (inactive),,,
COC(=O)C1=C(C)N2CCSC2(C)C(C(=O)OC)C1c1cccc(Cl)c1 (stereo unspecified),,10.3 µM (inactive),13.6 µM (inactive),,19.2 µM (inactive),16.6 µM (inactive),21.9 µM (inactive),,14.5 µM (inactive),,,20.8 µM (inactive),18.7 µM (inactive),23.1 µM (inactive),13.2 µM (inactive),11.5 µM (inactive),17.5 µM (inactive),10.2 µM (inactive),4.89 µM (inactive),13.9 µM (inactive)
CC(=N/NC(=S)Nc1c(C)n(C)n(-c2ccccc2)c1=O)/C(C)=N\NC(=S)Nc1c(C)n(C)n(-c2ccccc2)c1=O,> 100 µM (inactive),,> 100 µM (inactive),> 100 µM (inactive),> 100 µM (inactive),> 100 µM (inactive),> 100 µM (inactive),> 100 µM (inactive),> 100 µM (inactive),,> 100 µM (inactive),,> 100 µM (inactive),,> 100 µM (inactive),> 100 µM (inactive),,> 100 µM (inactive),> 100 µM (inactive),> 100 µM (inactive)
BrC(/C=N/Nc1nnc(-c2ccccc2)c(-c2ccccc2)n1)C(Br)c1ccccc1 (stereo unspecified),28.5 µM (inactive),14.4 µM (inactive),,82.4 µM (inactive),20.4 µM (inactive),64.4 µM (inactive),25.1 µM (inactive),14.5 µM (inactive),21.9 µM (inactive),41.5 µM (inactive),51.5 µM (inactive),41.7 µM (inactive),29.2 µM (inactive),24.9 µM (inactive),19.7 µM (inactive),28.4 µM (inactive),22.6 µM (inactive),22.2 µM (inactive),14.1 µM (inactive),30.5 µM (inactive)
BrCC[N+]12CC[N+](CCBr)(CC1)C2,> 100 µM (inactive),> 100 µM (inactive),> 100 µM (inactive),> 100 µM (inactive),> 100 µM (inactive),> 100 µM (inactive),> 100 µM (inactive),> 100 µM (inactive),> 100 µM (inactive),> 100 µM (inactive),> 100 µM (inactive),> 100 µM (inactive),> 100 µM (inactive),> 100 µM (inactive),> 100 µM (inactive),> 100 µM (inactive),> 100 µM (inactive),> 100 µM (inactive),> 100 µM (inactive),> 100 µM (inactive)
COc1cc(S(=O)(=O)Nc2ccc(-c3csc(/N=C\c4cccc(Oc5ccccc5)c4)n3)cc2)ccc1Cl,47.8 µM (inactive),21.6 µM (inactive),14.6 µM (inactive),,47.5 µM (inactive),8.85 µM (inactive),20.1 µM (inactive),26.1 µM (inactive),27.9 µM (inactive),19.3 µM (inactive),26.3 µM (inactive),28.8 µM (inactive),34.6 µM (inactive),32 µM (inactive),29.9 µM (inactive),33.9 µM (inactive),22.6 µM (inactive),30.8 µM (inactive),,47.1 µM (inactive)
CCS/C(=N\c1ccccc1)SC,> 100 µM (inactive),> 100 µM (inactive),> 100 µM (inactive),> 100 µM (inactive),> 100 µM (inactive),> 100 µM (inactive),> 100 µM (inactive),> 100 µM (inactive),> 100 µM (inactive),> 100 µM (inactive),> 100 µM (inactive),> 100 µM (inactive),> 100 µM (inactive),> 100 µM (inactive),> 100 µM (inactive),> 100 µM (inactive),> 100 µM (inactive),51.8 µM (inactive),> 100 µM (inactive),> 100 µM (inactive)
CN(C)c1nc(N(C)C)sc(=O)n1,,> 100 µM (inactive),,> 100 µM (inactive),> 100 µM (inactive),> 100 µM (inactive),> 100 µM (inactive),> 100 µM (inactive),> 100 µM (inactive),,> 100 µM (inactive),> 100 µM (inactive),> 100 µM (inactive),> 100 µM (inactive),> 100 µM (inactive),> 100 µM (inactive),> 100 µM (inactive),> 100 µM (inactive),> 100 µM (inactive),> 100 µM (inactive)
c1ccc(P2c3ccccc3Nc3ccccc32)cc1,49.3 µM (inactive),,38.6 µM (inactive),> 100 µM (inactive),99.5 µM (inactive),59 µM (inactive),29.5 µM (inactive),62.5 µM (inactive),30.8 µM (inactive),45.8 µM (inactive),> 100 µM (inactive),71 µM (inactive),71.6 µM (inactive),23.6 µM (inactive),> 100 µM (inactive),59.8 µM (inactive),44.1 µM (inactive),11.4 µM (inactive),43.1 µM (inactive),59.7 µM (inactive)
COc1cc(CNc2nc3c(NC(C)=O)cc(C(F)(F)F)cc3nc2-c2ccccc2)cc(OC)c1OC,19.6 µM (inactive),> 100 µM (inactive),> 100 µM (inactive),> 100 µM (inactive),> 100 µM (inactive),> 100 µM (inactive),90.4 µM (inactive),> 100 µM (inactive),> 100 µM (inactive),> 100 µM (inactive),> 100 µM (inactive),> 100 µM (inactive),> 100 µM (inactive),> 100 µM (inactive),> 100 µM (inactive),> 100 µM (inactive),> 100 µM (inactive),,,> 100 µM (inactive)
CC1=Nc2nc(Cl)cn2C(=O)C1(Cl)Cl,> 10 µM (inactive),> 10 µM (inactive),> 10 µM (inactive),> 10 µM (inactive),> 10 µM (inactive),> 10 µM (inactive),> 10 µM (inactive),> 10 µM (inactive),> 10 µM (inactive),> 10 µM (inactive),> 10 µM (inactive),> 10 µM (inactive),> 10 µM (inactive),> 10 µM (inactive),> 10 µM (inactive),> 10 µM (inactive),> 10 µM (inactive),> 10 µM (inactive),,> 10 µM (inactive)
COC(=O)N/N=C/c1oc(-c2ccccc2)c(-c2ccccc2)c1[N+](=O)[O-],> 100 µM (inactive),> 100 µM (inactive),> 100 µM (inactive),> 100 µM (inactive),> 100 µM (inactive),> 100 µM (inactive),> 100 µM (inactive),> 100 µM (inactive),> 100 µM (inactive),> 100 µM (inactive),> 100 µM (inactive),> 100 µM (inactive),> 100 µM (inactive),,> 100 µM (inactive),> 100 µM (inactive),> 100 µM (inactive),> 100 µM (inactive),> 100 µM (inactive),> 100 µM (inactive)
CC1CC2C3CCC4=CC(=O)C=CC4(C)C3(F)C(O)CC2(C)C1(O)C(=O)COP(=O)(O)O (stereo unspecified),> 100 µM (inactive),3.42 µM (inactive),> 33.7 µM (inactive),,> 100 µM (inactive),> 100 µM (inactive),> 100 µM (inactive),> 100 µM (inactive),> 100 µM (inactive),> 100 µM (inactive),> 100 µM (inactive),> 100 µM (inactive),> 100 µM (inactive),0.144 µM (active),> 100 µM (inactive),> 100 µM (inactive),> 100 µM (inactive),> 100 µM (inactive),> 100 µM (inactive),> 100 µM (inactive)
Oc1[nH]c(Nc2cccc(Br)c2)nc2ncnc1-2,> 100 µM (inactive),> 100 µM (inactive),53.8 µM (inactive),> 100 µM (inactive),> 100 µM (inactive),71.8 µM (inactive),> 100 µM (inactive),> 100 µM (inactive),> 100 µM (inactive),> 100 µM (inactive),> 100 µM (inactive),> 100 µM (inactive),56.4 µM (inactive),54.7 µM (inactive),> 100 µM (inactive),,26.5 µM (inactive),57.7 µM (inactive),> 100 µM (inactive),> 100 µM (inactive)
Nc1ccn(C2OC(CO)C(O)C2O)c(=O)c1 (stereo unspecified),114 µM (inactive),174 µM (inactive),125 µM (inactive),> 625 µM (inactive),> 625 µM (inactive),> 625 µM (inactive),348 µM (inactive),> 625 µM (inactive),> 625 µM (inactive),143 µM (inactive),,> 625 µM (inactive),> 625 µM (inactive),> 625 µM (inactive),360 µM (inactive),186 µM (inactive),,583 µM (inactive),,> 625 µM (inactive)
